In patent US20040138311A1, “Medicament containing an effector of the glutathione metabolism together with $g(a)-lipoic acid for treating diabetes mellitus” (priority 2001, published 2004):
Counter-ions that a name gives are not always drawn.

Assays:
Type in all cases: cell-based, human
T-lymphocytes = experiment: Activation markers CD69, CD25, CD71 of PHA-stimulated T-lymphocytes (activation index); conditions: thiol-deficient cells, 1.0 μg/ml phytohemagglutinin, culture time 72 hours; normal = 1.0
Experimental: In the cultivation experiment described with reference to Example 1, human T-lymphocytes were stimulated with 1.0 μg/ml phytohemagglutinin. In a culture time of 72 hours, specific markers of the cellular activation were quantitatively detected using cytofluorimetery by means of monoclonal antibodies. The influence of the combinations used according to the invention on the activation markers CD69 (early activation antigen), CD25 (intermediate activation antigen) and CD71 (late activation antigen) of T-lymphocytes was measured. […] It can thus be concluded that the normalization of the cellular thiol status achieved by the combined use of α-lipoic acid and the respective effectors of the glutathione metabolism is accompanied by a restitution of cell function.

peritoneal macrophages [1] = experiment: Intracellular thiol expression of peritoneal macrophages from peritoneal dialysis patients; conditions: time kinetic over 14 days
Experimental: Peritoneal macrophages were isolated from the effluate of peritoneal dialysis of patients with a high degree of renal insufficiency, absorbed in a cell culture medium and incubated in a gasifying incubation cabinet at 37° C., a relative humidity of 98% and 7.5% relative air-CO2 content. To investigate the influence of the combinations used according to the invention on the thiol status of the peritoneal macrophages, individual fractions were treated with α-lipoic acid, the effectors of the glutathione metabolism ambroxol or the ACE inhibitor enalapril and with the combination of α-lipoic acid/ambroxol or α-lipoic acid/enalapril, while an additional fraction was maintained as an untreated control. The cellular thiol status was determined using the measurement methods described in Example 1. FIG. 4 illustrates the effect of the combination of α-lipoic acid and ambroxol (FIG. 4a) and α-lipoic acid and enalapril (FIG. 4b) in a time kinetic over 14 days […].

peritoneal macrophages [2] = experiment: Phagocytosis capacity of peritoneal macrophages (cytofluorimetric test with opsonized fluorochrome-marked bacteria); conditions: treatment time of 6 days
Experimental: Peritoneal macrophages were isolated using a method analogous to the method described in Example 3 and cultivated ex vivo. The phagocytosis capacity was determined by a cytofluorimetric test on the single-cell level. The macrophages were thereby co-cultivated with opsonized and fluorochrome-marked bacteria. The number of bacteria absorbed during a defined period was determined quantitatively by means of the fluorescence intensity in the macrophages and was used as a measurement for their phagocytosis capacity. The influence of the combinations used according to the invention on the phagocytosis capacity of the peritoneal macrophages after a treatment time of 6 days is presented in the following table.

peritoneal macrophages [3] = experiment: Degree of differentiation and activation of peritoneal macrophages (CD15, CD11c, CD69, CD71 cytofluorimetry); conditions: Control = 1.0; after 6 days of incubation; α-lipoic acid 50 μM, ambroxol 10 μM, enalapril 5 μM, captopril 10 μM
Experimental: Peritoneal macrophages were isolated from patients during renal replacement therapy using the method described in Example 3 and cultivated in the presence of the combinations of α-lipoic acid and effectors of the glutathione metabolism according to the invention. After 6 days of incubation, the degree of differentiation of the peritoneal macrophages was determined by means of the expression of the cell surface antigens CD15 and CD11c, and the degree of cellular activation was determined using cytofluorimetry by means of the co-expression of the activation antigens CD69 to CD15-positive cells and CD71 to […] cells.

peritoneal macrophages [4] = experiment: as above; conditions: Control = 1.0; after 6 days of incubation; α-lipoic acid 50 μM, ambroxol 10 μM, enalapril 5 μM, captopril 10 μM; remark: listed apart in the source
[5] = system: lymphocytes (peripheral immune cells); experiment: Intracellular thiol expression of thiol-depleted peripheral immune cells (CMFDA flow cytofluorimetry); conditions: thiol-deficient conditions (1603), 10-20% thiol reduction
Experimental: Peripheral immune cells from healthy donors (n=9) were isolated from the peripheral blood. The major fraction of the resulting total population of mononuclear cells regularly represents lymphocytes with a relative percentage of approximately 90%, depending on the donor. 10% of the mononuclear cells are represented by monocytes. The mononuclear cells obtained were absorbed in special cell culture media and incubated in a gasifying incubation cabinet at 37° C., a relative humidity of 98% and 5% relative air-CO2 content. […] To test the influence of the combinations used according to the invention on the thiol status of thiol-deficient immune cells, these cells were artificially thiol-depleted. This process was carried out using proven methods by cultivation in thiol-deficient media (RPMI 1603). Comparative cultures using complete media (RPMI) 1640) were used to define the best possible normal value under the culture conditions. […] Primarily non-fluorogenic CMFDA is thereby passively absorbed by the cell. By means of the chlormethyl group, there is a bonding to cytoplasmic thiol groups. […] The median fluorescence intensity of the specimen (10,000 cells) is directly proportional to the concentration of the intracellular thiol groups. […] The data are presented as the ratio of the cellular fluorescence intensity to the respective calibration particles (beads) that were analyzed simultaneously. […]

[6] = system: lymphocytes (peripheral immune cells); experiment: Membrane-bound thiol expression of thiol-depleted peripheral immune cells (CMTMR flow cytofluorimetry); conditions: α-lipoic acid 50 μM, captopril 10 μM, combination at the same concentrations
Experimental: Peripheral immune cells from healthy donors (n=9) were isolated from the peripheral blood. The major fraction of the resulting total population of mononuclear cells regularly represents lymphocytes with a relative percentage of approximately 90%, depending on the donor. 10% of the mononuclear cells are represented by monocytes. The mononuclear cells obtained were absorbed in special cell culture media and incubated in a gasifying incubation cabinet at 37° C., a relative humidity of 98% and 5% relative air-CO2 content. […] To test the influence of the combinations used according to the invention on the thiol status of thiol-deficient immune cells, these cells were artificially thiol-depleted. This process was carried out using proven methods by cultivation in thiol-deficient media (RPMI 1603). Comparative cultures using complete media (RPMI) 1640) were used to define the best possible normal value under the culture conditions. The expression of membrane-bound thiol groups was also determined using flow cytofluorimetry. In this case, chloromethyltetramethyl rhodamine (CMTMR) was used as thiol conjugate under the conditions of a blocked membrane potential and an inhibited diffusion capacity of the cells. The fluorescence intensity of the fluorochrome molecules bound to the cell membrane is in turn proportional to the number of thiol groups on the cell surface. The results obtained with this experimental investigation of the influence of the combinations according to the invention on the expression of cell membrane bound thiols are presented in FIG. 2 for the combinations of α-lipoic acid and ambroxol (FIG. 2a) and α-lipoic acid and enalapril (FIG. 2b). The following table presents the results for the combination of α-lipoic acid and captopril.

peritoneal macrophages [7] = experiment: Membrane thiol expression of peritoneal macrophages from peritoneal dialysis patients; conditions: α-lipoic acid effect disappeared after 4 days of treatment
Experimental: Peritoneal macrophages were isolated from the effluate of peritoneal dialysis of patients with a high degree of renal insufficiency, absorbed in a cell culture medium and incubated in a gasifying incubation cabinet at 37° C., a relative humidity of 98% and 7.5% relative air-CO2 content. To investigate the influence of the combinations used according to the invention on the thiol status of the peritoneal macrophages, individual fractions were treated with α-lipoic acid, the effectors of the glutathione metabolism ambroxol or the ACE inhibitor enalapril and with the combination of α-lipoic acid/ambroxol or α-lipoic acid/enalapril, while an additional fraction was maintained as an untreated control. The cellular thiol status was determined using the measurement methods described in Example 1. […] The membrane expression of thiols was determined on the basis of the median fluorescence intensity (mfi) of the specimen (3000 cells/measurement) after coupling to a chlormethyl-fluorochrome derivative.

peritoneal macrophages [8] = experiment: Stability of intracellular thiol restitution in peritoneal macrophages in the dialysis model; conditions: after approximately 4 days in the dialysis model
Experimental: (§1) The combinations of thiol-restored peritoneal macrophages used according to the invention were extracted from this test system after 6 days and cultivated over a period of 14 days in a dialysis model. For this purpose the peritoneal macrophages were adapted to matrices that were coated with collagen IV and placed in contact with conventional high-glucose dialysis solution 3 times a day for 60 minutes each time. In this case, the model was used for the induction of a combined hyperglycemic/osmotic stress. […] The membrane expression of thiol was determined on the basis of the median fluorescence intensity (mfi) of the specimen (3000 cells/measurement) after coupling to a chlormethyl-fuorochrome derivative. […] Here, too, there is a mono-effect of α-lipoic acid, although it lasts only briefly and after approximately 4 days in the dialysis model is only approximately 50% as effective as the combinations.

peritoneal macrophages [9] = experiment: Stability of membrane-bound thiol expression in peritoneal macrophages in the dialysis model; conditions: 14 days, high-glucose dialysis solution
Experimental: as §1, with “combinations. A similar result is apparent in the curves of the membrane-bound thiol expression illustrated in FIG. 7.” for “combinations.”

SMILES | Effect on the activation index of T-lymphocytes (CD69, CD25, CD71; in words) (T-lymphocytes) | Effect on cellular thiol expression of peritoneal macrophages (in words) (peritoneal macrophages [1]) | Phagocytosis rate higher than that of the untreated control by a factor of (peritoneal macrophages [2]) | CD11c expression (peritoneal macrophages [3]) | CD15 expression (peritoneal macrophages [3]) | CD11c/71 co-expression (peritoneal macrophages [4]) | Membrane-resistant thiol expression ([6]; length of culture 0 d) [mfiBeads/Ratio] | Membrane-resistant thiol expression ([6]; length of culture 1 d) [mfiBeads/Ratio] | Membrane-resistant thiol expression ([6]; length of culture 2 d) [mfiBeads/Ratio] | Membrane-resistant thiol expression ([6]; length of culture 3 d) [mfiBeads/Ratio] | Membrane-resistant thiol expression ([6]; length of culture 4 d) [mfiBeads/Ratio] | Membrane-resistant thiol expression ([6]; length of culture 6 d) [mfiBeads/Ratio] | Membrane-resistant thiol expression ([6]; length of culture 8 d) [mfiBeads/Ratio] | Membrane-resistant thiol expression ([6]; length of culture 10 d) [mfiBeads/Ratio] | Membrane-resistant thiol expression ([6]; length of culture 12 d) [mfiBeads/Ratio] | Membrane-resistant thiol expression ([6]; length of culture 14 d) [mfiBeads/Ratio] | CD15/69 co-expression (peritoneal macrophages [3]) | other results
Nc1c(Br)cc(Br)cc1CNC1CCC(O)CC1 (centres unmarked) [Ambroxol, hydrochloride] | does not have any influence on one of the three activation markers | had no effect | 1.35 | 1.01 ± 0.09 | 0.98 ± 0.13 | 0.96 ± 0.1 | – | – | – | – | – | – | – | – | – | – | – | –
O=C(O)CCCCC1CCSS1 (stereo not drawn) [α-lipoic acid] | slight improvement of the cellular activation | increase of the cellular thiol expression | 1.85 | 1.21 ± 0.11 | 1.18 ± 0.16 | 1.08 ± 0.09 | 2.37 ± 0.45 | 2.65 ± 0.39 | 2.43 ± 0.52 | 2.31 ± 0.36 | 2.26 ± 0.20 | 2.19 ± 0.13 | 1.93 ± 0.20 | 1.63 ± 0.16 | 1.32 ± 0.21 | 1.34 ± 0.20 | 1.09 ± 0.08 | Effect on the intracellular thiol deficit (in words) [5]: not possible to achieve a complete compensation of the thiol deficit; Effect on membrane-bound thiol expression of peritoneal macrophages (in words) (peritoneal macrophages [7]): very clear effect; Effectiveness relative to the combinations (peritoneal macrophages [8]): approximately 50%; Membrane-bound thiol expression in the dialysis model (in words) (peritoneal macrophages [9]): intermediary
CCOC(=O)[C@H](CCc1ccccc1)NC(C)C(=O)N1CCCC1C(=O)O (stereo in doubt) [Enalapril, 1-{N-[(S)-1-ethoxycarbonyl-3-phenylpropyl]-L-alanyl}-L-prolin] | equivalent to α-lipoic acid only in the case of the effectuation of the CD25 antigen | – | 1.53 | 1.23 ± 0.22 | 1.21 ± 0.22 | 1.10 ± 0.14 | – | – | – | – | – | – | – | – | – | – | 1.19 ± 0.12 | –
C[C@H](CS)C(=O)N1CCC[C@H]1C(=O)O [Captopril, 1-[(2S)-3-mercapto-2-methylpropionyl]-L-prolin] | – | – | – | 1.26 ± 0.24 | 1.19 ± 0.14 | 1.52 ± 0.16 | 2.37 ± 0.45 | 2.63 ± 0.39 | 2.54 ± 0.41 | 2.52 ± 0.38 | 2.50 ± 0.41 | 2.46 ± 0.50 | 2.01 ± 0.39 | 1.68 ± 0.29 | 1.02 ± 0.51 | 0.99 ± 0.46 | 1.69 ± 0.21 | –
